Several values for one entry are separate records, joined by “and”; a condition that tells them apart may be missing. Identical values can stand only once. Like-named read-outs stand apart in the source and are kept apart here.
Biological target: T1, GPR139 (Homo sapiens, UniProt Q6DWJ6)
T1 sequence (Q6DWJ6 1-353): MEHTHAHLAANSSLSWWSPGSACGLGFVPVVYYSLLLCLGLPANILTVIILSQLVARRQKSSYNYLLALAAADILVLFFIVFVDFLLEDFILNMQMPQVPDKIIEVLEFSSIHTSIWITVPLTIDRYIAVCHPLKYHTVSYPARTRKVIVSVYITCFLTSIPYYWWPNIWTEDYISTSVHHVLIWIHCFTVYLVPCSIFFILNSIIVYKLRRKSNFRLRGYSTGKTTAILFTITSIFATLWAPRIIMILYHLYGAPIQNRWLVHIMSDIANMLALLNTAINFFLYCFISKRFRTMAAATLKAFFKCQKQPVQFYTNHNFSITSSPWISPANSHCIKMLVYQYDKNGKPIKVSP
Assay: Ca2+ mobilization assay, agonist mode, stable GPR139-CHOk1 cell line
Format: cell-based
Details: for Emax: normalized to Lundbeck Cmp 1a
Method in brief: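 Agonist activity of compounds is assessed in stably transfected CHO-K1 cells using the calcium dye Fluo-4 at 37 °C in HEPES-buffered HBSS (pH 7.4). Efficacy is expressed relative to the reference agonist Lundbeck Cmp 1a, set as 100%.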

[1] = Supplementary Table 7, enantiopure compounds, read-out: pEC50, Ca2+ mobilization (converted)
[2] = Supplementary Table 7, read-out: Emax (%), Ca2+ mobilization
[3] = log [Compound] M -12.0, individual replicates
[4] = log [Compound] M -5.5, replicate experiments
[5] = log [Compound] M -6.0, replicate experiments
[6] = log [Compound] M -6.5, replicate experiments
[7] = log [Compound] M -7.0, replicate experiments
[8] = log [Compound] M -7.5, replicate experiments
[9] = log [Compound] M -8.0, replicate experiments
[10] = log [Compound] M -8.5, replicate experiments
[11] = log [Compound] M -9.0, replicate experiments

C[C@@H](NC(=O)CNC(=O)c1cccc(Cl)c1)c1ccccc1 [JNJ(R), reference compound]
EC50 [1]: 3160 nM
Emax [2]: 99 ± 5%
Ca2+ signal (% of Cmp 1a) (log [Compound] M -8.5, individual replicates): -4.33 % of Cmp 1a and 7 % of Cmp 1a and -3.33 % of Cmp 1a
Ca2+ signal (% of Cmp 1a) (log [Compound] M -9.0, individual replicates): -1.33 % of Cmp 1a and 6 % of Cmp 1a and -7 % of Cmp 1a
Ca2+ signal (% of Cmp 1a) [3]: 0 % of Cmp 1a
Ca2+ signal (% of Cmp 1a) (log [compound] M -4.5, individual replicates): 84 % of Cmp 1a and 100 % of Cmp 1a and 82 % of Cmp 1a
Ca2+ signal (% of Cmp 1a) (log [compound] M -5.0, individual replicates): 66 % of Cmp 1a and 88 % of Cmp 1a and 60 % of Cmp 1a
Ca2+ signal (% of Cmp 1a) (log [compound] M -5.5, individual replicates): 49 % of Cmp 1a and 72 % of Cmp 1a and 33 % of Cmp 1a
Ca2+ signal (% of Cmp 1a) (log [compound] M -6.0, individual replicates): 28 % of Cmp 1a and 43 % of Cmp 1a and 16 % of Cmp 1a
Ca2+ signal (% of Cmp 1a) (log [compound] M -6.5, individual replicates): 13 % of Cmp 1a and 14 % of Cmp 1a and -2 % of Cmp 1a
Ca2+ signal (% of Cmp 1a) (log [compound] M -7.0, individual replicates): 4.33 % of Cmp 1a and 9 % of Cmp 1a and -10 % of Cmp 1a
Ca2+ signal (% of Cmp 1a) (log [compound] M -7.5, individual replicates): 11 % of Cmp 1a and 3.67 % of Cmp 1a and -10 % of Cmp 1a
Ca2+ signal (% of Cmp 1a) (log [compound] M -8.0, individual replicates): 5.33 % of Cmp 1a (2×) and -13 % of Cmp 1a

CC(NC(=O)CNC(=O)c1cccc(Cl)c1)c1ccccc1 (stereo not drawn) [JNJ-63533054, reference compound]
Emax (Supplementary Table 4, read-out: Emax (%), Ca2+ mobilization): 100 ± 2%
EC50 (Supplementary Table 4, read-out: pEC50, Ca2+ mobilization (converted)): 63.1 nM
EC50 [1]: 15.8 nM
Emax [2]: 119 ± 6%
Ca2+ signal (% of Cmp 1a) [4]: 100 % of Cmp 1a
Ca2+ signal (% of Cmp 1a) [5]: 91 % of Cmp 1a and 96 % of Cmp 1a and 95 % of Cmp 1a
Ca2+ signal (% of Cmp 1a) [6]: 91 % of Cmp 1a and 78 % of Cmp 1a and 84 % of Cmp 1a
Ca2+ signal (% of Cmp 1a) [7]: 68 % of Cmp 1a and 62 % of Cmp 1a and 69 % of Cmp 1a
Ca2+ signal (% of Cmp 1a) [8]: 36 % of Cmp 1a and 26 % of Cmp 1a and 32 % of Cmp 1a
Ca2+ signal (% of Cmp 1a) [9]: 25 % of Cmp 1a and 21 % of Cmp 1a and 8 % of Cmp 1a
Ca2+ signal (% of Cmp 1a) (log [Compound] M -8.5, individual replicates, listed as JNJ (S)): 33 % of Cmp 1a and 17 % of Cmp 1a and 31 % of Cmp 1a
Ca2+ signal (% of Cmp 1a) [10]: 11 % of Cmp 1a and 1.8 % of Cmp 1a and -4.36 % of Cmp 1a
Ca2+ signal (% of Cmp 1a) (log [Compound] M -9.0, individual replicates, listed as JNJ (S)): 12 % of Cmp 1a and 6 % of Cmp 1a and 21 % of Cmp 1a
Ca2+ signal (% of Cmp 1a) [11]: 0 % of Cmp 1a
Ca2+ signal (% of Cmp 1a) [3]: 0 % of Cmp 1a
Ca2+ signal (% of Cmp 1a) (log [Compound] M = -5.5, individual replicate columns): 100 % of Cmp 1a
Ca2+ signal (% of Cmp 1a) (log [Compound] M = -6.0, individual replicate columns): 96 % of Cmp 1a and 95 % of Cmp 1a and 91 % of Cmp 1a
Ca2+ signal (% of Cmp 1a) (log [Compound] M = -6.5, individual replicate columns): 78 % of Cmp 1a and 84 % of Cmp 1a and 91 % of Cmp 1a
Ca2+ signal (% of Cmp 1a) (log [Compound] M = -7.0, individual replicate columns): 62 % of Cmp 1a and 69 % of Cmp 1a and 68 % of Cmp 1a
Ca2+ signal (% of Cmp 1a) (log [Compound] M = -7.5, individual replicate columns): 26 % of Cmp 1a and 32 % of Cmp 1a and 36 % of Cmp 1a
Ca2+ signal (% of Cmp 1a) (log [Compound] M = -8.0, individual replicate columns): 21 % of Cmp 1a and 8 % of Cmp 1a and 25 % of Cmp 1a
Ca2+ signal (% of Cmp 1a) (log [Compound] M = -8.5, individual replicate columns): 1.8 % of Cmp 1a and -4.36 % of Cmp 1a and 11 % of Cmp 1a
Ca2+ signal (% of Cmp 1a) (log [Compound] M = -9.0, individual replicate columns): 0 % of Cmp 1a
Ca2+ signal (% of Cmp 1a) (log [compound] M -4.5, individual replicates, listed as JNJ (S)): 119 % of Cmp 1a and 120 % of Cmp 1a and 108 % of Cmp 1a
Ca2+ signal (% of Cmp 1a) (log [compound] M -5.0, individual replicates, listed as JNJ (S)): 106 % of Cmp 1a and 110 % of Cmp 1a and 122 % of Cmp 1a
Ca2+ signal (% of Cmp 1a) (log [compound] M -5.5, individual replicates, listed as JNJ (S)): 100 % of Cmp 1a and 103 % of Cmp 1a and 143 % of Cmp 1a
Ca2+ signal (% of Cmp 1a) (log [compound] M -6.0, individual replicates, listed as JNJ (S)): 91 % of Cmp 1a and 107 % of Cmp 1a and 141 % of Cmp 1a
Ca2+ signal (% of Cmp 1a) (log [compound] M -6.5, individual replicates, listed as JNJ (S)): 93 % of Cmp 1a and 118 % of Cmp 1a and 122 % of Cmp 1a
Ca2+ signal (% of Cmp 1a) (log [compound] M -7.0, individual replicates, listed as JNJ (S)): 76 % of Cmp 1a and 120 % of Cmp 1a and 95 % of Cmp 1a
Ca2+ signal (% of Cmp 1a) (log [compound] M -7.5, individual replicates, listed as JNJ (S)): 65 % of Cmp 1a and 92 % of Cmp 1a and 71 % of Cmp 1a
Ca2+ signal (% of Cmp 1a) (log [compound] M -8.0, individual replicates, listed as JNJ (S)): 46 % of Cmp 1a and 57 % of Cmp 1a and 54 % of Cmp 1a

COc1cc(OC)cc(C(=O)NNC(=O)Nc2cccc3ccccc23)c1 [Lundbeck Cmp 1a, reference compound]
EC50 (GPR139-CHOk1, read-out: EC50, Ca2+ mobilization): 200 nM
Emax (Supplementary Table 2, mean ± SEM, read-out: Emax (%) Ca2+): 108 ± 3%
EC50 [1]: 158 nM
Ca2+ signal (% of Cmp 1a) (log [Compound] M -4.5, replicate experiments): 104 % of Cmp 1a and 101 % of Cmp 1a and 98 % of Cmp 1a and 116 % of Cmp 1a and 117 % of Cmp 1a and 88 % of Cmp 1a and 112 % of Cmp 1a and 95 % of Cmp 1a and 103 % of Cmp 1a and 94 % of Cmp 1a
Ca2+ signal (% of Cmp 1a) (log [Compound] M -5.0, replicate experiments): 104 % of Cmp 1a and 115 % of Cmp 1a and 107 % of Cmp 1a and 118 % of Cmp 1a and 110 % of Cmp 1a and 88 % of Cmp 1a and 112 % of Cmp 1a and 119 % of Cmp 1a
Ca2+ signal (% of Cmp 1a) [4]: 96 % of Cmp 1a and 113 % of Cmp 1a and 100 % of Cmp 1a and 95 % of Cmp 1a and 84 % of Cmp 1a and 88 % of Cmp 1a and 114 % of Cmp 1a and 103 % of Cmp 1a and 108 % of Cmp 1a and 126 % of Cmp 1a
Ca2+ signal (% of Cmp 1a) [5]: 81 % of Cmp 1a and 96 % of Cmp 1a and 87 % of Cmp 1a and 69 % of Cmp 1a and 82 % of Cmp 1a and 73 % of Cmp 1a and 84 % of Cmp 1a and 75 % of Cmp 1a and 88 % of Cmp 1a and 109 % of Cmp 1a
Ca2+ signal (% of Cmp 1a) [6]: 63 % of Cmp 1a and 62 % of Cmp 1a and 65 % of Cmp 1a and 67 % of Cmp 1a and 53 % of Cmp 1a and 60 % of Cmp 1a and 76 % of Cmp 1a and 64 % of Cmp 1a and 68 % of Cmp 1a
Ca2+ signal (% of Cmp 1a) [7]: 38 % of Cmp 1a (2×) and 39 % of Cmp 1a
Ca2+ signal (% of Cmp 1a) [8]: 20 % of Cmp 1a and 15 % of Cmp 1a and 23 % of Cmp 1a and 11 % of Cmp 1a and 2.33 % of Cmp 1a and 22 % of Cmp 1a and 19 % of Cmp 1a and 29 % of Cmp 1a and 16 % of Cmp 1a and 35 % of Cmp 1a
Ca2+ signal (% of Cmp 1a) [9]: 1.56 % of Cmp 1a and 5 % of Cmp 1a and 17 % of Cmp 1a and -13 % of Cmp 1a and 8 % of Cmp 1a and 12 % of Cmp 1a and 9 % of Cmp 1a and 3 % of Cmp 1a and 6.33 % of Cmp 1a
Ca2+ signal (% of Cmp 1a) [10]: -0.447 % of Cmp 1a and 1.52 % of Cmp 1a and 10 % of Cmp 1a and -20 % of Cmp 1a and 2.33 % of Cmp 1a and 11 % of Cmp 1a and 4.67 % of Cmp 1a and -2 % of Cmp 1a and -1 % of Cmp 1a and 5 % of Cmp 1a and 23 % of Cmp 1a
Ca2+ signal (% of Cmp 1a) [11]: -1.54 % of Cmp 1a and 0.497 % of Cmp 1a and 16 % of Cmp 1a and -12 % of Cmp 1a and 8 % of Cmp 1a and 9 % of Cmp 1a and 3.33 % of Cmp 1a and 13 % of Cmp 1a and 11 % of Cmp 1a
